# Laboratory results taken from US7238512B2, “Method to produce para-hydroxybenzoic acid in the stem tissue of green plants by using a tissue-specific promoter” (E. I. du Pont de Nemours and Company, priority 2003, dated 2007).
# Where two headings read alike, the source gives them in different places.
# T1: Caulobacter crescentus HCHL (4-hydroxycinnamoyl-CoA hydratase/lyase), SEQ ID NO:61 (Caulobacter vibrioides, UniProt Q9A5P6)
# T1 sequence (Q9A5P6 1-275): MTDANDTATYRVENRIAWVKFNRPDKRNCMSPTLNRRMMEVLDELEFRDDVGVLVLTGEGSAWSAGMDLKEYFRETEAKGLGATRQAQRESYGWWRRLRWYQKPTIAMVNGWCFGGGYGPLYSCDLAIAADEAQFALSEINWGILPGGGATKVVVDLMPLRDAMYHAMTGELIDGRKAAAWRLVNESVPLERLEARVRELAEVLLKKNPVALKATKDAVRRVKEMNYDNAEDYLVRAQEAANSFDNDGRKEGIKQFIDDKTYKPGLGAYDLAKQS
# B1: Caulobacter crescentus HCHL (4-hydroxycinnamoyl-CoA hydratase/lyase), SEQ ID NO:61 (Caulobacter vibrioides CB15) (protein)
# chain: T1 sequence (Q9A5P6 1-275)
# Assays:
# Arabidopsis plants [1] = assay: pHBA analysis in tissue of transgenic plants by acid hydrolysis and HPLC; type: in vivo, Arabidopsis thaliana; conditions: for Whole stalk pHBA highest: best primary transformant; for Whole stalk pHBA highest / Basal stalk pHBA average / Basal stalk pHBA highest: Table 5; for Basal stalk pHBA average / Basal stalk pHBA highest: primary transformants, eight weeks; for Basal stalk pHBA average: 2 cm stem segment at base; for pHBA levels relative to the best 35S HCHL line: whole stalk tissue, best lines
# Procedure: If not stated otherwise, plants were grown under standard conditions ([…], 12 h darkness) in a greenhouse. Plants expressing HCHL genes where grown at 100 μE m^−2 sec^−1, 14 h light (23° C.), 12 h (18° C.) darkness and 70% relative humidity in growth chambers (Conviron, USA). Sterile plant cultures were maintained under identical conditions in a plant growth chamber (Percival, USA).
# Arabidopsis thaliana plants were transformed using Agrobacterium strains (C58, C1 GV3101 MP90) (Koncz, C. and Schell, J., Mol. Gen. Genet., 204:383-396 (1986)) and published protocols of the in-planta transformation method (Desfeux et al., Plant Physiology, 123(3):895-904 (2000)). Selection for transformants carrying the NPTII gene was conducted on sterile growth media in the presence of 50 mg/L kanamycin. Selection for transformants carrying the BAR gene was conducted on sterile growth media in the presence of 7.5 mg/L glufosinate or by germinating seed in soil followed by spray-application of an aqueous solution (6 mg/L) of glufosinate herbicide (Sigma, USA) 7 days after germination. Plants destined for plant transformation experiments were grown under permanent light at 23° C. to accelerate flower development.
# pHBA was quantitated in plant tissue by HPLC analysis. For determination of pHBA conjugates, fresh oven-dried or lyophilized tissue was extracted with 50% MeOH. To quantitate free pHBA plant samples (fresh, dried, lyophilized plant tissue or dried-down methanol extracts of plant tissue) were subjected to acid hydrolysis. Dried or lyophilized tissue was ground to a fine powder using a Cyclotec 1093 tissue mill (Foss Tecator, Sweden) prior to hydrolysis. Tissue (5-25 mg of dried or lyophilized material, 10-100 mg of fresh tissue) was supplemented with 500-750 μL of 1M HCl and incubated at 100° C. for 1-3 h. The hydrolysate was adjusted to alkaline pH by addition of one volume of 1.1 M NaOH.
# [2] = system: Pseudomonas fluorescens AN103 HCHL (4-hydroxycinnamoyl-CoA hydratase/lyase); conditions: published, Mitra et al., Arch. Biochem. Biophys., 365(1):6-10 (1999); cited from earlier work
# [3] = system: Pseudomonas putida (DSM 12585) HCHL (4-hydroxycinnamoyl-CoA hydratase/lyase), variant with C-terminal hexa-histidine tag, SEQ ID NO:10; assay: Kinetic properties of the purified his-tagged HCHL enzyme from Pseudomonas putida (DSM 12585); HPLC quantitation of pHBALD / vanillin; conditions: for Km / Vmax: his-tagged enzyme, 5.5 min; for Km: 100 mM Tris/HCl pH 8.5, 30° C., pHCACoA 343 to 2.7 μM, feruloylCoA 293 to 2.3 μM; for Vmax: pH 8.5, 30° C.
# Procedure: A second expression construct was generated that expresses a variant of the HCHL protein that carries a C-terminal hexa-histidine tag.
# LB medium (200 mL containing 50 mg/L kanamycin) was inoculated with a single colony of E. coli BL21 DE3 cells harboring the pET29a HCHL 6×His Tag expression construct. Cells were grown to an ODλ=600 nm of 0.6 and protein production was induced by addition of 0.2 mM IPTG. Cells were grown at room temperature for 24 h. Cells were harvested by centrifugation (5000×g for 10 min) and resuspended in 2.5 mL of 100 mM Tris/HCl (pH 8.5), 20 mM DTT, and 300 mM NaCl. The cell suspension was passed twice through a French press and cleared by centrifugation (30000×g, 20 min, at 4° C.). The cell-free extract was buffer-exchanged using PD10 columns into 20 mM NaPO4 (pH 7.5), 500 mM NaCl, and 10 mM imidazole and loaded on a 5 mL HiTrap chelating chromatography cartridge (Amersham Pharmacia, USA). The column was washed with 20 mL of loading buffer and 20 mL of loading buffer containing 70 mM imidazole. The his-tagged HCHL protein was eluted from the column with a linear gradient from 70-1000 mM imidazole in loading buffer.
# [4] = system: Pseudomonas putida (DSM 12585) HCHL (4-hydroxycinnamoyl-CoA hydratase/lyase), native, SEQ ID NO:6
# Procedure: LB medium (500 mL containing 50 mg/L) kanamycin was inoculated with a single colony of E. coli BL21 DE3 cells harboring the pET HCHL expression construct. Cells were grown to an ODλ=600 nm of 0.6 and protein production was induced by the adding of 0.2 mM IPTG. Cells were grown at room temperature for 24 h. Cells were harvested by centrifugation (5000×g for 10 min) and resuspended in 15 mL of 100 mM Tris/HCl (pH 8.5), 20 mM DTT, and 300 mM NaCl. […] Two 2.5-mL aliquots of the cell-free extract were buffer-exchanged using PD10 columns into 50 mM Tris/HCl (pH 7.6), 10 mM Na2SO3, and 1 mM EDTA. Buffer-exchanged extract (7 mL) was loaded onto a Q-sepharose column (15 mL gel bed volume). […] A fraction with HCHL activity was purified further by chromatography on hydroxyapatide (Biorad Econo-Pac cartridge CHT-II, 1 mL gel bed volume (Biorad, Calif., USA)). Approximately 2.5 mL was buffer-exchanged into (10 mM NaPO4, (pH 6.8) and 10 μM CaCl2).
# [5] = target: T1, Caulobacter crescentus HCHL (4-hydroxycinnamoyl-CoA hydratase/lyase), SEQ ID NO:61; conditions: Table 12; 0.8 ng enzyme, pHCACoA 0.9 to 440 μM
# [6] = HCHL enzyme activity in leaf and stalk tissue of transgenic plants; conditions: leaf, T2 lines, eight weeks, Table 6
# Text: For this experiment the basal stem segment was used.
# The primary transformants were self crossed and T2 seed material was germinated on selective media containing glufosinate, transferred to soil, and grown for eight weeks. Leaf and stalk tissue was harvested and subjected to pHBA analysis and assayed for HCHL activity (Table 6).
# T2 plants of the Caulobacter and Pseudomonas fluorescens HCHL transgenics were germinated on selective media and grown in soil for 6 weeks to obtain sufficient stalk tissue for analysis of HCHL enzyme activity.
# Arabidopsis plants [7] = conditions: in vivo
# [8] = substrate: CC(C)(COP(=O)(O)OP(=O)(O)OC[C@H]1O[C@@H](n2cnc3c(N)ncnc32)[C@H](O)[C@@H]1OP(=O)(O)O)[C@@H](O)C(=O)NCCC(=O)NCCSC(=O)/C=C/c1ccc(O)cc1; assay: purified protein, by the assay type; conditions: other: Table 12, 0.8 ng enzyme, pHCACoA 0.9 to 440 μM, pH 8.5, 30° C.
# [9] = HCHL enzyme assay, kinetic properties of purified recombinant HCHL with pHCACoA; type: biochemical; conditions: compared to the Pseudomonas fluorescens AN103 enzyme
# Text: The reaction mixture was cleared by centrifugation.
# [10] = native enzyme, Example 1, pH 8.5, 30° C.
molecule,measurement,setting,value
"4CL1 HCHL: Arabidopsis 4CL1 promoter fused to P. putida HCHL coding sequence, SEQ ID NO:28",Whole stalk pHBA highest,Arabidopsis plants [1],12.93 (line 183) mg/g DW
same,Basal stalk pHBA average,Arabidopsis plants [1],0.55 mg/g FW
same,Basal stalk pHBA highest,Arabidopsis plants [1],3.87 mg/g FW
same,pHBA levels relative to the best 35S HCHL line,Arabidopsis plants [1],60%
COc1cc(/C=C/C(=O)SCCNC(=O)CCNC(=O)[C@H](O)C(C)(C)COP(=O)(O)OP(=O)(O)OC[C@H]2O[C@@H](n3cnc4c(N)ncnc43)[C@H](O)[C@@H]2OP(=O)(O)O)ccc1O [feruloylCoA],Km,[2],2.4 µM
same,Vmax,[2],36.5 nkat/mg
same,Km,[3],2.39 µM
same,Vmax,[3],37.3 nkat/mg
"CC(C)(COP(=O)(O)OP(=O)(O)OC[C@H]1O[C@@H](n2cnc3c(N)ncnc32)[C@H](O)[C@@H]1OP(=O)(O)O)[C@@H](O)C(=O)NCCC(=O)NCCSC(=O)/C=C/c1ccc(O)cc1 [pHCACoA, para-coumaroyl-CoA]",Km,[2],5.3 µM
same,Vmax,[2],73 nkat/mg
same,Vmax,"[4]; Table 12, 1.4 ng enzyme, pHCACoA 0.9 to 440 μM",43 nkat mg^−1
same,Km,"[4]; Table 12, 1.4 ng enzyme, pHCACoA 0.9 to 440 μM, pH 8.5, 30° C.",2.4 µM
same,catalytic center activity (per enzyme dimer),"[4]; from Vmax with pHCACoA, using 30,865.1 Da per monomer",2.65 s⁻¹
same,Km,[4]; [10],2.4 µM
same,Vmax,[4]; [10],43 nkat/mg
same,Vmax,[5],240 nkat mg^−1
same,catalytic center activity (per enzyme dimer),"[3]; from Vmax with pHCACoA, using 32,348.8 Da per monomer",3.4 s⁻¹
same,Km,[3],2.53 µM
same,Vmax,[3],53.8 nkat/mg
"AtCesA7 (IRX3) HCHL: Arabidopsis AtCesA7 (IRX3) promoter fused to P. putida HCHL coding sequence, SEQ ID NO:30",Whole stalk pHBA highest,Arabidopsis plants [1],12.96 (line 366) mg/g DW
same,Basal stalk pHBA average,Arabidopsis plants [1],1.21 mg/g FW
same,Basal stalk pHBA highest,Arabidopsis plants [1],3.91 mg/g FW
same,pHBA levels relative to the best 35S HCHL line,Arabidopsis plants [1],60%
same,HCHL activity,[6],no detectable HCHL activity
same,plant phenotype,Arabidopsis plants [7],phenotypically indistinguishable from wild type plants
"C3′H HCHL: Arabidopsis C3′H promoter fused to P. putida HCHL coding sequence, SEQ ID NO:29",Whole stalk pHBA highest,Arabidopsis plants [1],9.52 (line 227) mg/g DW
same,Basal stalk pHBA average,Arabidopsis plants [1],0.41 mg/g FW
same,Basal stalk pHBA highest,Arabidopsis plants [1],1.65 mg/g FW
"C4H HCHL: Arabidopsis C4H promoter fused to P. putida HCHL coding sequence, SEQ ID NO:27",Whole stalk pHBA highest,Arabidopsis plants [1],23.42 (line 35) mg/g DW
same,Basal stalk pHBA average,Arabidopsis plants [1],0.89 mg/g FW
same,Basal stalk pHBA highest,Arabidopsis plants [1],5.54 mg/g FW
same,pHBA levels relative to the best 35S HCHL line,Arabidopsis plants [1],106%
B1,Km,[8],4 µM
same,improvement of catalytic efficiency (Kcat/Km),[9],50%
